Experimental data published in EP0406428B1, “PEPTIDE DERIVATIVES AND THEIR USE” (ASAHI GLASS COMPANY LTD., priority 1988, dated 1995).
Residues, ends and D or L forms follow the SMILES beside them.

What was measured:
trypsin = assay: Peptide map: decomposition with trypsin, HPLC analysis; type: in vitro ADME; conditions: Tris-HCl 100 mM pH 8.5, 37°C, 24 hours, compared with linear peptide (GRGDSPA)
Method: Peptide was dissolved in 10 mg/mℓ of distilled water. 20 »l of this solution was diluted with addition of 180 »l of a buffer solution (Tris-HCl, 100 mM, pH 8.5). To this diluted solution, 5 »l of a trip solution (1 mg/mℓ […], CaCl₂ 10 mM) was added, and the mixture was kept at a temperature of 37°C for 24 hours. Then, 10 »l of 2N HCl was added to this mixed solution to complete the reaction. Out of this reaction liquid, 50 »l was provided for high performance liquid chromatography HPLC for its analysis. Condition for Analysis HP HPLC: Waters Model 510 Column: YMC-ODS Detection: A₂₁₄ Elution: Liquid A - 0.1% aqueous solution of TFA Liquid B - 0.1% acetonitrile solution of TFA Linear concentration gradient of: 0% B → 30% B (0 min.) (30 min.) Figure 1 is a graphical representation showing the result of analysis of the cyclic peptide synthesized in accordance with this Example. Also, the linear peptide (GRGDSPA) synthesized in accordance with (14) above was tested under the same conditions as mentioned above. The result of its analysis is shin in Figure 2.

blood platelet = assay: Decrease in number of blood platelet in surgical operation using artificial heart and lung; type: in vivo; conditions: surgical operations using artificial heart and lung; control PBS
Method: The following Table indicates the results of examination of decrease in the number of the blood platelet, when 100 »g (per 1 kg of weight/minute) of [formula] was added for the purpose of the surgical operation. As the control, there was added PBS in place of peptide.

C[C@@H]1NC(=O)[C@@H]2CCCN2C(=O)[C@H](CO)NC(=O)[C@H](CC(=O)O)NC(=O)CNC(=O)[C@H](CCCNC(=N)N)NC(=O)CNC1=O [Example 1] (cyclo(RGDSPAG))
decomposition by treatment with trypsin (trypsin): difficult to undergo further decomposition

C[C@@H]1NC(=O)[C@@H]2CCCN2C(=O)[C@H](CO)NC(=O)[C@H](CC(=O)O)NC(=O)CNC(=O)[C@H](CCCNC(=N)N)NC(=O)CNC1=O [Example I00042] (cyclo(RGDSPAG))
inhibiting aggregation of blood platelet (blood platelet): capability of inhibiting such aggregation at its low concentration
